Each block holds one compound with its values, some of them ahead of it.
Experiments:
GRP94 [1] = molecular target: T1, GRP94 (Sus scrofa, UniProt Q29092); assay: [3H]-NECA competitive displacement assay; format: binding, porcine; conditions: for effect of excess Mg2+ on binding to GRP94: 10 mM Mg(OAc)2 versus nominal magnesium; for nucleoside base specificity: binding to GRP94 by [3H]-NECA displacement: competitors at 50 μM
T1 construct: GRP94 was purified from porcine pancreas rough microsomes; from tissue; host or cells: porcine pancreas rough microsomes (lumenal contents)
Protocol: Where indicated, binding reactions were performed in either buffer C (10 mM Tris, pH 7.5, 50 mM KCl, 5 mM MgCl2, 2 mM DTT, 0.01% NP-40, 20 mM Na2MoO4) or 50 mM Tris, pH 7.5, 10 mM Mg(OAc)2. […] Vacuum filtration was performed with an Amersham Pharmacia Biotech (Piscataway, N.J.) vacuum filtration manifold.
All binding reactions were performed in triplicate and corrected by subtraction of background values, determined in binding reactions lacking GRP94.

casein kinase II = casein kinase II (Homo sapiens, UniProt P68400); assay: Casein kinase assay; format: biochemical; conditions: 180 μM NECA or radicicol in 3.6% DMSO, 5 μg/ml heparin, 5 mM GTP; 4 μM casein
Protocol: (§1) Phosphorylation Assays. To assay for GRP94 autophosphorylation, 1 μM GRP94 was incubated with γ-[^32P]ATP (6000 cpm/pmol) (Amersham Pharmacia Biotech of Piscataway, N.J.), diluted with cold ATP to yield a final concentration of 0.15 mM ATP in a buffer containing 10 mM Mg(OAc)2 and 50 mM K-Hepes, pH 7.4. For the casein kinase assay, 1 unit of casein kinase II was incubated as described above, with the addition of 4 μM casein. […] The 25 μl reaction mixtures were incubated at 37° C. for 1 hour and quenched by addition of 10% trichloroacetic acid. Samples were analyzed by 10% SDS-PAGE gels and the phosphorylated species were quantitated using a Fuji MACBAS1000™ phosphorimaging system (Fuji Medical Systems of Stamford, Conn.).

HSP90 = HSP90 (Saccharomyces cerevisiae, UniProt P02829); conditions: cited from earlier work
GRP94 [2] = molecular target: T1, GRP94; assay: GRP94 autophosphorylation assay; format: biochemical, porcine; conditions: 180 μM NECA or radicicol in 3.6% DMSO, 5 μg/ml heparin, 5 mM GTP
Protocol: as §1

GRP94 [3] = molecular target: T1, GRP94; assay: Fluorophore binding to native and heat shocked GRP94 (fluorescence emission); set-up: species or system porcine; conditions: for fluorophore binding to native versus heat shocked GRP94 (fluorescence emission): 0.5 μM GRP94, 5 μM probe, 37° C.
Description: Fluorophore Binding Reactions.
Fluorescence Measurements. […] All spectra were background corrected.
To characterize the structural basis for the heat shock dependent activation of GRP94 activity, the interaction of polarity-sensitive fluorophores with native and heat shocked GRP94 was examined. The three probes tested, Prodan (6-propionyl-2-(dimethylamino)naphthalene), 8-ANS (1,8-anilinonaphthalenesulfonate) and bis-ANS (bis(1,8-anilino-naphthalenesulfonate) are structurally related probes that bind to hydrophobic sites on proteins and undergo substantial fluorescence spectrum changes upon introduction into nonpolar environments, as discussed by Rosen & Weber (1969) Biochemistry 8:3915-3920; Weber & Farris (1979) Biochemistry 18:3075-3078; Takashi et al. (1977) Proc Natl Acad Sci USA 74:2334-2338; Shi et al. (1994) Biochemistry 33:7536-7546. The following experimental protocol was utilized. GRP94 was warmed to 37° C. and either maintained at 37° C. or heat shocked for 15 minutes at 50° C., followed by incubation at 37° C. Subsequently, probe stocks were added to the GRP94 stocks and emission spectra recorded after 30 min at 37° C.
Under the experimental conditions used in this series of experiments, bis-ANS binding to GRP94 was near maximal at a 20-fold molar excess of GRP94 monomer over bis-ANS, with half maximal binding observed at 110 nM GRP94 (FIG. 2B).

GRP94 [4] = molecular target: T1, GRP94; assay: Tryptophan fluorescence (tertiary conformational state); format: biochemical, porcine; conditions: 50 μM NECA, 50 μM geldanamycin, 2.5 mM ATP or 2.5 mM ADP; 1 h 37° C.
Protocol: Tryptophan Fluorescence. Tryptophan fluorescence measurements were conducted in a FLUOROMAX™ spectrofluorometer (Spex Industries, Inc. of Edison, N.J.) with the slit widths set to 1 nm for both excitation and emission. […] All spectra were corrected by subtraction of buffer or buffer plus ligand samples. GRP94 (50 μg/ml) was incubated in buffer A supplemented with 10 mM Mg(OAc)2 and the following concentrations of ligands for 1 hour at 37° C. […] Samples were then cooled to room temperature, transferred to a quartz cuvette, and the spectra collected.

T1 sequence (Q29092 22-804): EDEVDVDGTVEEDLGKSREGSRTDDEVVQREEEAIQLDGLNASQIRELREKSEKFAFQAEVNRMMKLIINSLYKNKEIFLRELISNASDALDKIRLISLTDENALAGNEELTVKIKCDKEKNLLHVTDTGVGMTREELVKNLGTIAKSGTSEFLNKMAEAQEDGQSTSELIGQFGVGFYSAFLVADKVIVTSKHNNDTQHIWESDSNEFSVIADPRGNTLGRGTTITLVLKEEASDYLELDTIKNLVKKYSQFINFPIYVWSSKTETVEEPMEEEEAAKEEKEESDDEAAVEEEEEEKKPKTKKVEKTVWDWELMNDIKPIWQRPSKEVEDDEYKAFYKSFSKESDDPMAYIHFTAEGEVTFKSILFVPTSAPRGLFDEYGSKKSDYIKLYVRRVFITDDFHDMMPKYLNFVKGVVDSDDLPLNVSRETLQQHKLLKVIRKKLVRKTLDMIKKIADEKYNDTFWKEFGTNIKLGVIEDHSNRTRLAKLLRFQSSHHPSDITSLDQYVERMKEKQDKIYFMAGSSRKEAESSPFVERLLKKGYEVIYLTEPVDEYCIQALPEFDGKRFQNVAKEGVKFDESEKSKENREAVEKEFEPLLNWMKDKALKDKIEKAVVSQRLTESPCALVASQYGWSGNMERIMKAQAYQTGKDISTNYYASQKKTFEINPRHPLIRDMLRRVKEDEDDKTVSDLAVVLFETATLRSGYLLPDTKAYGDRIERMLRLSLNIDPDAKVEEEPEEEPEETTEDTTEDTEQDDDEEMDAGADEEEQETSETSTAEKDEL
casein kinase II, sequence (P68400 whole entry): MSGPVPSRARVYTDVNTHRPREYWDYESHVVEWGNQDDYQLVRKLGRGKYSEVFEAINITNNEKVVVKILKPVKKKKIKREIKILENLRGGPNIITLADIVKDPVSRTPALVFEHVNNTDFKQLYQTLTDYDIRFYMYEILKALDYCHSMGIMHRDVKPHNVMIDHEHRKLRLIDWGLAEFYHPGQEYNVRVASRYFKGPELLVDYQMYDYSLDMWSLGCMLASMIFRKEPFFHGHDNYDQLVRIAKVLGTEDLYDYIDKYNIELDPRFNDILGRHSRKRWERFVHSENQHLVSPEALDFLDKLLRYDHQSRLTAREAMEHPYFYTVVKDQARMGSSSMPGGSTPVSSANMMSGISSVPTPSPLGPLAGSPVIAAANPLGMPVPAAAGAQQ
casein kinase II, sequence (P67870 whole entry partner): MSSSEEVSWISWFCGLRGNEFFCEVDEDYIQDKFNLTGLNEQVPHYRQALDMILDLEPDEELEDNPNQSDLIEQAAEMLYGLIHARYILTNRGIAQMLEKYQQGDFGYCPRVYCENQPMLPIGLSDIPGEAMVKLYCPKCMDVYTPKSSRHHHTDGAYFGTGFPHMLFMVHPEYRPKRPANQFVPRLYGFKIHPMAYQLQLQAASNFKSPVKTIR
HSP90, sequence (P02829 whole entry): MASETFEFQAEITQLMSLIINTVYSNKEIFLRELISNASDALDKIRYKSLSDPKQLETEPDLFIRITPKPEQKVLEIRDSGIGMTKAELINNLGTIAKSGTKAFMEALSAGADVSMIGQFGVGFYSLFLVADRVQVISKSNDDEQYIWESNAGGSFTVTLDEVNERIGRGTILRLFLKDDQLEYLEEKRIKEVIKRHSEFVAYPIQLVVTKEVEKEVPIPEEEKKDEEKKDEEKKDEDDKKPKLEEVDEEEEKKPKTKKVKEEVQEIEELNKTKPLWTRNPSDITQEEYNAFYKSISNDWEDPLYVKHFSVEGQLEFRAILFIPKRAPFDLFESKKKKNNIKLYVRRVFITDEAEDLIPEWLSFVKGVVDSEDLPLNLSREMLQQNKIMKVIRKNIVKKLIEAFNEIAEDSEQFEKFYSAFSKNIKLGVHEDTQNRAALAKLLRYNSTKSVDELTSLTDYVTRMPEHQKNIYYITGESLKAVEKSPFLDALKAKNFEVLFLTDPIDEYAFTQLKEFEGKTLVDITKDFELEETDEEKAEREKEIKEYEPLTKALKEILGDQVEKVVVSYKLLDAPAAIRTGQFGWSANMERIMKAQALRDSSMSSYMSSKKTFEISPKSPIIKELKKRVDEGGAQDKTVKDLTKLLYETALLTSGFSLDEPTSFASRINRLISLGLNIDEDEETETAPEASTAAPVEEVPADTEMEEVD

Compound: Nc1ncnc2c1ncn2[C@@H]1O[C@H](COP(=O)(O)O)[C@@H](O)[C@H]1O [AMP]
effect of excess Mg2+ on binding to GRP94 (GRP94 [1]): markedly stimulated the binding of ATP, ADP and AMP

Compound: C[C@@H]1C[C@H]2O[C@@H]2/C=C\C=C\C(=O)Cc2c(Cl)c(O)cc(O)c2C(=O)O1 [radicicol]
inhibition of casein kinase II activity (casein kinase II): neither NECA nor radicicol, both of which bind to the N-terminal nucleotide binding domain of GRP94, significantly inhibit GRP94 derived or casein kinase II activity below the solvent background
binding stoichiometry to Hsp90 (HSP90; Roe et al. (1999)): 2 mol radicicol/mol Hsp90 dimer

Compound: Heparin
inhibition of casein kinase II activity (casein kinase II): markedly attenuated GRP94-derived and casein kinase II activity
inhibition of GRP94 autophosphorylation (GRP94-derived kinase) activity (GRP94 [2]): markedly attenuated GRP94-derived and casein kinase II activity

Compound: O=S(=O)(O)c1cccc2cccc(Nc3ccccc3)c12 [8-ANS, 1,8-anilinonaphthalenesulfonate]
agonist activity for GRP94 activation (GRP94 [3]): functions solely as an indicator and lacks agonist activity
fluorophore binding to native versus heat shocked GRP94 (fluorescence emission) (GRP94 [3]): displays weak interactions with native GRP94, yet binds avidly following heat shock

nucleoside base specificity: binding to GRP94 by [3H]-NECA displacement (GRP94 [1]): little to no binding
Compound: Nc1ccn([C@@H]2O[C@H](COP(=O)(O)OP(=O)(O)OP(=O)(O)O)[C@@H](O)[C@H]2O)c(=O)n1 [CTP]

nucleoside base specificity: binding to GRP94 by [3H]-NECA displacement (GRP94 [1]): little to no binding
Compound: Nc1nc2c(ncn2[C@@H]2O[C@H](COP(=O)(O)OP(=O)(O)OP(=O)(O)O)[C@@H](O)[C@H]2O)c(=O)[nH]1 [GTP]
inhibition of casein kinase II activity (casein kinase II): markedly attenuated GRP94-derived and casein kinase II activity
inhibition of GRP94 autophosphorylation (GRP94-derived kinase) activity (GRP94 [2]): markedly attenuated GRP94-derived and casein kinase II activity

relative affinities for GRP94 in presence of Mg2+ (GRP94 [1]; excess Mg2+): nearly identical relative affinities
Compound: Nc1ncnc2c1ncn2[C@@H]1O[C@H](COP(=O)(O)OP(=O)(O)O)[C@@H](O)[C@H]1O [ADP]
affinity of N-terminal domain of Hsp90, ADP relative to ATP (HSP90; Prodromou et al. (1997)): four-fold higher affinity than that observed for ATP
change of GRP94 tryptophan fluorescence (GRP94 [4]): the tryptophan fluorescence was decreased
effect of excess Mg2+ on binding to GRP94 (GRP94 [1]): markedly stimulated the binding of ATP, ADP and AMP

Compound: Nc1ncnc2c1ncn2[C@@H]1O[C@H](CO)[C@@H](O)[C@H]1O [adenosine]
relative displacement activity in [3H]-NECA competition (GRP94 [1]): relative displacement activity approximating that observed for ADP
effect of excess Mg2+ on binding to GRP94 (GRP94 [1]): without effect on the binding of NECA or adenosine to GRP94

nucleoside base specificity: binding to GRP94 by [3H]-NECA displacement (GRP94 [1]): GRP94 could bind both ATP and deoxyATP
Compound: Nc1ncnc2c1ncn2[C@H]1C[C@H](O)[C@@H](COP(=O)(O)OP(=O)(O)OP(=O)(O)O)O1 [deoxyATP]

nucleoside base specificity: binding to GRP94 by [3H]-NECA displacement (GRP94 [1]): little to no binding
Compound: O=c1ccn([C@@H]2O[C@H](COP(=O)(O)OP(=O)(O)OP(=O)(O)O)[C@@H](O)[C@H]2O)c(=O)[nH]1 [UTP]

Compound: CCC(=O)c1ccc2cc(N(C)C)ccc2c1 [Prodan, 6-propionyl-2-(dimethylamino)naphthalene]
fluorophore binding to native versus heat shocked GRP94 (fluorescence emission) (GRP94 [3]): does not interact with the hydrophobic binding pocket(s) displayed by heat shocked GRP94
